Where a SMILES comes first, the peptide text is derived from it.
Columns and labels:
α-syn [1] = biological target: T1, α-syn (Homo sapiens, UniProt P37840); assay: ThT fluorescence assay of unseeded α-syn fibrillation in the presence of peptides; type: biochemical; conditions: 1 mg/ml α-syn, 0–0.5 mg/ml peptide, 48 h; for ThT signal end level: unseeded ThT, 37 °C, versus α-syn alone
T1 construct: made in house; host or cells: Escherichia coli BL21 (DE3), plasmid pET11-D
Experimental: (§1) To test the effects of these selected nine peptides on the aggregation of α-syn, we performed a thioflavin T (ThT) fluorescence assay in the presence of 1 mg/ml α-syn and 0 to 0.5 mg/ml peptide for 48 h (raw data in Fig. S3). Furthermore, the peptides alone were monitored for self-fibrillation. […] High concentrations of p222, p194, and p249 led to a decline in ThT fluorescence after reaching a plateau, possibly because of the formation of insoluble amorphous species. We also carried out seeding experiments by adding 5% sonicated preaggregated α-syn fibrils to the ThT assay.
(§2) About 150 μl of 70 μM (1 mg/ml) α-syn, 40 μM ThT, and varying amounts of peptides (0, 0.06, 0.125, 0. 25, 0.375, and 0.5 mg/ml) were transferred in triplicates to a black COSTAR 96-well clear bottom plate (Nunc, Thermo Fisher Scientific), and including a 3 mm diameter glass bead (Glaswarenfabrik Karl Hecht GmbH & Co KG) per well to increase reproducibility ([100]). The plate was sealed with Crystal Clear sealing tape (Hampton Research) and incubated at 37 °C in a CLARIOstar Plus (BMG LABTECH) fluorescence plate reader. Fibrillation was carried out for ∼48 h with 300 rpm double orbital shaking between the readings for 372 s (excitation/emission: 448∕485 nm). Seeding experiments were performed using the same setting as for the fibrillation assay as described ([39]). Briefly, the experiments were done in triplicates in the presence of 0.05 mg/ml of α-syn fibril seeds (5% seeding) and 1 mg/ml of peptides in a solution of 1 mg/ml α-syn in 96-well plates.

SH-SY5Y cells [2] = conditions: αSOs with peptide, MTT
Experimental: (§3) The effect of the peptides on αSOs toxicity in SH-SY5Y cells using 3-(4, 5-dimethylthiazol-2-yl)-2,5-diphenyltetrazolium bromide (MTT) cell viability assay was also tested to complement our calcein data.
(§4) We used the MTT assay to measure cell viability after 24 h treatment with αSOs in the presence of peptides. SH-SY5Y cells were seeded in 96-well plates at a density of 5 × 10^4 cell/ml in Dulbecco's modified Eagle's medium supplemented with 10% FBS, 100 unit/ml penicillin, and […]. The cells were incubated in a humidified atmosphere incubator with 5% CO2 and 95% humidity at 37 °C for 24 h. The culture medium was then replaced with fresh medium containing 10 μM αSOs with peptides and incubated for another 24 h. Then the cell medium was replaced with a fresh medium containing 20% MTT (5 mg/ml), and the cells were incubated for an additional 4 h at 37 °C. Then 100 μl of dimethyl sulfoxide was added to dissolve formazan crystals by incubating for 30 min on a shaker at RT. Consequently, absorbance was measured by using a plate reader at 570 nm.

[3] = Calcein release assay, substance alone; conditions: for Peptide concentration from which membrane toxicity is shown: peptide alone, calcein-filled DOPG LUVs, tested range 10^−1–10^−6 mg/ml
Experimental: αSOs show cytotoxic properties, which have been attributed to their membrane-disrupting ability ([69]). To examine the effect of peptides on membrane permeabilization by αSOs, we used a simple calcein release assay. αSOs, peptides, and aSO–peptide mixtures at 10^−6 to 10^−1 mg/ml peptide were added to calcein-loaded DOPG vesicle, and the extent of calcein release was monitored for 30 min by the increase in fluorescence as calcein leaks out upon membrane permeabilization, leading to dilution and the loss of self-quenching. The time-dependent calcein release data from DOPG vesicles ([70], [71]) in the presence of peptides, αSOs, and αSO–peptides are shown in Figs. S9 and S10. In order to allow easy comparison of all peptides, the calcein release versus concentration (peptides and αSOs) were plotted at the plateau point of release (Fig. 5, A–C). […] Figure 5D compares calcein release percentages of data represented in Figure 5, A and B at peptide concentrations between 0.001 and 0.1 mg/ml, where we see the largest extent of calcein release in general.
Calcein-filled vesicles of DOPG were prepared as described before ([38]). Briefly, DOPG was dissolved in PBS to […], in the presence of calcein at self-quenching concentrations (70 mM) and subjected to 10 freeze–thaw cycles between liquid nitrogen and a 50 °C water bath. After 21 times extrusion through a 100 nm filter, free calcein was separated from vesicles with a PD-10 desalting column (GE Healthcare). Vesicles were stored at 4 °C and used for calcein release assays within 24 h.
Calcein release was measured by mixing peptides and/or αSOs at a final concentration of 10^−6 to 10^−1 mg/ml and 5.2 μg/ml, respectively, in 148 μl with 2 μl of calcein vesicles, and were then loaded onto a 96-well plate (Nunc, Thermo Fischer Scientific) in triplicate. The plate was sealed with Crystal clear sealing tape (Hampton Research), and fluorescence was measured (excitation: 485 nm and emission: 520 nm) for 1 h at 37 °C every 2 min with a 2 s autoshake before each reading on a fluorescence plate reader (Tecan). Finally, 2 μl Triton X-100 (0.2% [v/v]) was added to lyse vesicles, and the maximal fluorescence signal was measured for 20 min under the same reading condition. Background fluorescence was subtracted, and the average signal of calcein release before addition of Triton X-100 (F), after treatment with Triton X-100 (Ft) and for the buffer control (F0) were determined, and calcein release percentage was calculated as follow (Equation 1):(1) CalceinRelease%(CR%)=(F−F0)/(Ft−F0)

α-syn [4] = biological target: T1, α-syn; assay: SDS-PAGE of soluble α-syn left in supernatant after fibrillation; type: biochemical; conditions: for Amount of soluble α-syn monomer left in the supernatant, in words: SDS-PAGE after centrifugation of fibrillated samples; for Soluble α-syn left in supernatant (SDS-PAGE gel): after end of incubation, centrifuged 13,000 rpm 15 min, versus α-syn alone
Experimental: Overall, there was a reasonable but not perfect correspondence between SDS-PAGE and ThT data.
To determine the amount of soluble α-syn, fibrillated samples were centrifuged (13,000 rpm, 15 min) and the supernatants were loaded on Bis–Tris 15% acrylamide gel with prestained protein ladder (Thermo Scientific) and run in a Bis–Tris running buffer at 150 V for 70 min, stained for 20 min in Coomassie brilliant blue (1.2 mM Coomassie brilliant blue, 5% ethanol, and 7% acetic acid), and destained overnight in a destaining solution (5% ethanol and 5% acetic acid). Gel bands were quantified using ImageJ.

SH-SY5Y cells [5] = assay: MTT cell viability assay, substance alone; conditions: for Cell viability (MTT): SH-SY5Y cells, 35 μg/ml peptide alone, 24 h
Experimental: as §3, §4

[6] = ThT monitoring of peptides alone for self-fibrillation; type: physicochemical; conditions: peptide alone (controls 1 mg/mL), 37 °C with shaking
Experimental: as §1
as §2, with “Seeding experiments were performed using the same setting as for the fibrillation assay as described ([39]). Briefly, the experiments were done in triplicates in the presence of 0.05 mg/ml of α-syn fibril seeds (5% seeding) and 1 mg/ml of peptides in a solution of 1 mg/ml α-syn in 96-well plates.” left out
[picture] […] The effect of the 9 peptides on α-syn fibrillation monitored by ThT fluorescence. […]

Row | Compound | Effect on α-syn aggregation (ThT), in words (α-syn [1]) | Effect on cell survival in the presence of toxic αSOs, in words (SH-SY5Y cells [2]) | Peptide concentration from which membrane toxicity is shown [3] | Amount of soluble α-syn monomer left in the supernatant, in words (α-syn [4]) | Soluble α-syn left in supernatant (SDS-PAGE gel) (α-syn [4]) | Toxicity to SH-SY5Y cells, in words (SH-SY5Y cells [5]) | Cell viability (MTT) (SH-SY5Y cells [5]) [%] | ThT signal end level (α-syn [1]) | Permeabilization of lipid vesicles by peptide alone ([3]; calcein-loaded DOPG vesicles, 10^−6 to 10^−1 mg/ml peptide, 37 °C, triplicate) | Self-fibrillation of the peptide alone [6]
1 | CC[C@H](C)[C@H](NC(=O)[C@H](Cc1ccccc1)NC(=O)[C@H](Cc1c[nH]c2ccccc12)NC(=O)[C@H](CCCNC(=N)N)NC(=O)[C@H](CC(N)=O)NC(=O)[C@@H](NC(=O)[C@H](CCC(N)=O)NC(=O)[C@H](CCCCN)NC(=O)[C@@H](N)CCSC)[C@@H](C)CC)C(=O)N[C@@H](CCCNC(=N)N)C(=O)N[C@@H](Cc1c[nH]c2ccccc12)C(=O)N[C@@H](CCC(N)=O)C(=O)N[C@@H](CCCCN)C(=O)N[C@@H](CCCCN)C(=O)N[C@@H](CCCNC(=N)N)C(=O)N[C@@H](CCCCN)C(=O)O [p249] (H-MKQINRWFIRWQKKRK-OH; N-terminus and C-terminus assumed) | slight aggregation-promoting effect | did not show positive effects | > 10^−2 mg/ml | decrease solubility | ↓↓ | slight toxicity | 80 | – | – | –
2 | CC[C@H](C)[C@H](NC(=O)[C@H](Cc1c[nH]c2ccccc12)NC(=O)[C@H](CCCNC(=N)N)NC(=O)[C@H](Cc1c[nH]c2ccccc12)NC(=O)[C@H](CCCCN)NC(=O)[C@@H](NC(=O)[C@H](CCCCN)NC(=O)[C@H](CCC(N)=O)NC(=O)[C@@H](N)CC(N)=O)[C@@H](C)CC)C(=O)N[C@@H](CCC(N)=O)C(=O)N[C@@H](CCCNC(=N)N)C(=O)N[C@@H](Cc1ccccc1)C(=O)N[C@@H](CCCNC(=N)N)C(=O)N[C@@H](CCCCN)C(=O)N[C@@H](CCCCN)C(=O)N[C@@H](CCSC)C(=O)O [p235] (H-NQKIKWRWIQRFRKKM-OH; N-terminus and C-terminus assumed) | slight aggregation-promoting effect | did not show positive effects | > 10^−2 mg/ml | – | – | slight toxicity | – | ↑↑ | – | –
3 | CC(C)C[C@H](NC(=O)[C@H](Cc1c[nH]cn1)NC(=O)[C@H](CO)NC(=O)[C@H](CO)NC(=O)[C@H](C)NC(=O)[C@@H](N)CO)C(=O)N[C@@H](Cc1c[nH]cn1)C(=O)N[C@@H](Cc1c[nH]cn1)C(=O)NCC(=O)N[C@@H](Cc1c[nH]cn1)C(=O)N[C@@H](CO)C(=O)NCC(=O)NCC(=O)O [p168] (H-SASSHLHHGHSGG-OH) | did not change the lag phase duration | – | – | decrease solubility | – | – | 94 | – | did not permeabilize lipid vesicles | –
4 | RQIKIWFQNRRFKWKK [p222, penetratin with modulated hydrophobicity] | slight aggregation-promoting effect | – | > 10^−4 mg/ml | decrease solubility | ↓↓ | slight toxicity | – | ↑↑ | – | slight self-fibrillation tendencies
